From paper PMC8056227, “Deverra tortuosa (Desf.) DC from Saudi Arabia as a new source of marmin and furanocoumarins derivatives with α-glucosidase, antibacterial and cytotoxic activities” (Heliyon, 2021)

Assays:
[1] = test system: Escherichia. coli: ATCC 25922; test: Antibacterial well diffusion, E. coli; format: cell-based; parameters: dose or concentration left out as unconfirmed; conditions: ATCC25922, range stated over 3 compounds and 3 strains
Source text: (§1) ATCC strains (American Type Culture Collection) were purchased from BD (Becton, Dickinson and Company). These strains were primarily activated in brain heart infusion broth and then grown on nonselective media nutrient agar (NA). A total of 7 bacterial strains (Escherichia. coli: ATCC 25922, Klebsiella pneumonia: ATCC 700603, Proteus mirabilis: ATCC 14153, Salmonella typhimurium: ATCC 14028, Pseudomonas aeruginosa: ATCC 254992, Staphylococcus aureus: ATCC 254996 and Enterococcus faecalis: ATCC 29212) were tested for antibacterial activity.
(§2) The 0.5 Macfarland standards were used to prepare the bacterial inoculum from log phase bacterial growth. Muller-Hinton agar (MHA) media plates were prepared aseptically in a safety cabinet; the medium was used to evaluate antibacterial activity. Sterile cork borer was used to make five wells (6 mm). MHA medium was swabbed with fresh culture (24 h ATCC bacterial strains). 50 μL of the tested compounds (0.5 mg/mL) prepared in DMSO were dispensed in the wells. As a positive control, 15 μg of tetracycline was used and the negative control consists of 50 μL DMSO. The test was conducted with 3 replications. The plates were incubated according to Clinical and Laboratory Standards Institute guidelines ([CLSI 2017]) and the experiments were carried out aerobically at 35–37 °C for 18–20 h. The diameter of the inhibition zone around the wells was measured using a ruler, and the mean and standard deviation were calculated for three readings.

[2] = test system: Proteus mirabilis: ATCC 14153; test: Antibacterial well diffusion, P. mirabilis; format: cell-based; parameters: dose or concentration left out as unconfirmed
Source text: as §1
as §2, with “50 μL of the tested compounds (0.5 mg/mL) prepared in DMSO were dispensed in the wells.” left out

[3] = test system: Salmonella typhimurium: ATCC 14028; test: Antibacterial well diffusion, S. typhimurium; format: cell-based; parameters: dose or concentration left out as unconfirmed
Source text: as §1
as §2, with “50 μL of the tested compounds (0.5 mg/mL) prepared in DMSO were dispensed in the wells.” left out

[4] = test system: Pseudomonas aeruginosa: ATCC 254992; test: Antibacterial well diffusion, P. aeruginosa; format: cell-based; parameters: dose or concentration left out as unconfirmed; conditions: ATCC254992, range stated over 3 compounds and 3 strains
Source text: as §1, §2

[5] = test system: MCF-7 (breast cancer) cells; test: MTT cytotoxicity assay, MCF-7; format: cell-based; conditions: Homo sapiens, MCF7, 72 h, read-out: percentage of inhibition, MCF-7
Description: (§3) In the present study, two cancer cell lines were tested: HCT116 (colorectal carcinoma) and MCF-7 (breast cancer) (American Type Culture Collection, USA). Fetal calf serum (FCS: 10 %) and L-glutamine (2 mM) were used to make complete growth medium to conserve the cell lines (RPMI: Roswell Park Memorial Institute, France). Cell lines were incubated at 37 °C under atmosphere conditions of CO2 (5%). All tests were performed when the cells reached 80% confluence, and a trypan blue exclusion assay was used to test the viability of the cell lines ([Louis and Siegel, 2011]).
The cytotoxicity of the isolated compounds against HCT116 (colorectal carcinoma) and MCF-7 (breast cancer) cells was evaluated spectrophotometrically through an MTT assay. The assay was performed in 96-well microtiter plates ([Bekir et al., 2013]). The concentrations of HCT-116 and MCF-7 cells were fixed at 10 × 10^3 and 12 × 10^3 cells/well, respectively. The adherent cells were incubated overnight (37 °C) in a 5% enriched CO2 atmosphere. […] After removing the medium, incubated cells (37 °C) were mixed with 50 μL of MTT solution (3 mg/mL in phosphate-buffered saline, PBS) for 20–40 min. The […] proceeded by adding 80 μL of 100% DMSO. The measurement of the obtained reaction was taken spectrophotometrically at 540 nm. As a positive control, Doxorubicin, a conventional anticancer drug, was used. Cell viability was measured using formula II:II % Inhibition = […]where Abs control is the absorbance measured of the total cell activity as described without any inhibition; Abs blank control is the absorbance of MTT substrate; and Abs sample is the absorbance of each inhibitor compound sample.

[6] = test system: Klebsiella pneumonia: ATCC 700603; test: Antibacterial well diffusion, K. pneumonia; format: cell-based; parameters: zone of inhibition: dose or concentration left out as unconfirmed; conditions: for antibacterial activity in words, K. pneumonia: 1 mg/mL; for zone of inhibition: Klebsiella pneumoniae, ATCC700603, range stated over 3 compounds and 3 strains
Source text: as §1
as §2, with “50 μL of the tested compounds (0.5 mg/mL) prepared in DMSO were dispensed in the wells.” left out

[7] = test system: Enterococcus faecalis: ATCC 29212; test: Antibacterial well diffusion, E. faecalis; format: cell-based; parameters: dose or concentration left out as unconfirmed
Source text: as §1
as §2, with “50 μL of the tested compounds (0.5 mg/mL) prepared in DMSO were dispensed in the wells.” left out

α-glucosidase = test: α-Glucosidase inhibitory activity (PNPG substrate); format: biochemical; conditions: pH 6.8, 37 °C, 30 min
Description: (2013)]. The substrate P-nitrophenyl-α-D-glucopyranoside (PNPG) was used for this experiment. Dimethyl sulfoxide (DMSO) was used to prepare different concentrations of the compounds (10–1000 μM). […] Afterwards, 40 μL of PNPG solution (0.375 mM) prepared in phosphate buffer (pH = 6.8) was added to the mixture and then incubated (37 °C for 30 min). 80 μL of Na2CO3 (0.2 M) prepared in phosphate buffer was added to the mixture. The absorbance was measured at 405 nm, and the measurement was replicated 3 times. The percentage of inhibition (%) reflects the α-glucosidase inhibitory activity and was calculated by formula (I):(I) α-glucosidase inhibition activity (%) = [(Acontrol – Asample)/Acontrol] × 100where Asample is the absorbance (405 nm) in the presence of the isolated compound and Acontrol is the absorbance (405 nm) of the control (A control consists of 20 μL potassium phosphate buffer instead of α-glucosidase solution).

[8] = test system: Escherichia. coli: ATCC 25922; parameters: method as in Tsassi et al., 2010; conditions: previous studies on marmin; ref Tsassi et al., 2010; cited from earlier work
[9] = test system: HCT116 (colorectal carcinoma) cells; test: MTT cytotoxicity assay, HCT116; format: cell-based; conditions: Homo sapiens, HCT-116, 72 h, read-out: percentage of inhibition, HCT-116
Description: as §3
The cytotoxicity of the isolated compounds against HCT116 (colorectal carcinoma) and MCF-7 (breast cancer) cells was evaluated spectrophotometrically through an MTT assay. The assay was performed in 96-well microtiter plates ([Bekir et al., 2013]). The concentrations of HCT-116 and MCF-7 cells were fixed at 10 × 10^3 and 12 × 10^3 cells/well, respectively. The adherent cells were incubated overnight (37 °C) in a 5% enriched CO2 atmosphere. […] Cell viability was measured using formula II:II % Inhibition = 100∗[(Abs control – Abs blank control)/(Abs sample- Abs blank sample)]where Abs control is the absorbance measured of the total cell activity as described without any inhibition; Abs blank control is the absorbance of MTT substrate; and Abs sample is the absorbance of each inhibitor compound sample.

Compound: CC(C)=CCOc1c2ccoc2cc2oc(=O)ccc12 [Compound 3, Isoimperatorin]
- zone of inhibition [1]: 6 to 12 mm
- antibacterial activity in words, P. mirabilis [2]: did not seem to be active
- antibacterial activity in words, S. typhimurium [3]: did not seem to be active
- zone of inhibition [4]: 6 to 12 mm
- inhibition at 100 µM [5]: 43.2%
- antibacterial activity in words, K. pneumonia [6]: did not seem to be active
- zone of inhibition [6]: 6 to 12 mm
- antibacterial activity in words, E. faecalis [7]: did not seem to be active
- IC50 (α-glucosidase): 171 ± 7.6 µM

Compound: COc1c2ccoc2cc2oc(=O)ccc12 [Compound 4, Bergapten]
- zone of inhibition [1]: 6 to 12 mm
- antibacterial activity in words, P. mirabilis [2]: did not seem to be active
- antibacterial activity in words, S. typhimurium [3]: did not seem to be active
- zone of inhibition [4]: 6 to 12 mm
- antibacterial activity in words, K. pneumonia [6]: did not seem to be active
- zone of inhibition [6]: 6 to 12 mm
- antibacterial activity in words, E. faecalis [7]: did not seem to be active

Compound: C/C(=C\COc1ccc2ccc(=O)oc2c1)CC[C@@H](O)C(C)(C)O [Compound 1, Marmin]
- inhibition at 100 µM [5]: 17.1%
- inhibition zone, E. coli (previous studies) [8]: 9.5 mm
- IC50 (α-glucosidase): 186 ± 8.3 µM
- inhibition at 100 µM [9]: 41.8%

Compound: COc1c2ccoc2c(OC)c2oc(=O)ccc12 [Compound 5, Isopimpinellin]
- zone of inhibition [1]: 6 to 12 mm
- antibacterial activity in words, P. mirabilis [2]: did not seem to be active
- antibacterial activity in words, S. typhimurium [3]: did not seem to be active
- zone of inhibition [4]: 6 to 12 mm
- inhibition at 100 µM [5]: 30.6%
- antibacterial activity in words, K. pneumonia [6]: did not seem to be active
- zone of inhibition [6]: 6 to 12 mm
- antibacterial activity in words, E. faecalis [7]: did not seem to be active

Compound: CC(=CCOc1ccc2ccc(=O)oc2c1)CCC(O)C(C)(C)OC1OC(CO)C(O)C(O)C1O (stereo not drawn) [Compound 2, Pituranthoside]
- zone of inhibition ([3]; Salmonella enterica, read-out: inhibition zone (IZ), S. typhimurium): 21 mm
- inhibition at 100 µM [5]: 29.9%
- zone of inhibition ([7]; Enterococcus faecalis, ATCC29212, read-out: inhibition zone (IZ), E. faecalis): 22 mm
- IC50 (α-glucosidase): 347 ± 11.2 µM
- inhibition at 100 µM [9]: 42.7%
